Consider 1 compound from BindingDB's records for doi:10.7270/Q2B56H72 (Nmmlsc, 2011).

The test has as its target T1, Beta-adrenergic receptor kinase 1 (Homo sapiens, UniProt P25098).
T1 sequence (P25098 whole entry): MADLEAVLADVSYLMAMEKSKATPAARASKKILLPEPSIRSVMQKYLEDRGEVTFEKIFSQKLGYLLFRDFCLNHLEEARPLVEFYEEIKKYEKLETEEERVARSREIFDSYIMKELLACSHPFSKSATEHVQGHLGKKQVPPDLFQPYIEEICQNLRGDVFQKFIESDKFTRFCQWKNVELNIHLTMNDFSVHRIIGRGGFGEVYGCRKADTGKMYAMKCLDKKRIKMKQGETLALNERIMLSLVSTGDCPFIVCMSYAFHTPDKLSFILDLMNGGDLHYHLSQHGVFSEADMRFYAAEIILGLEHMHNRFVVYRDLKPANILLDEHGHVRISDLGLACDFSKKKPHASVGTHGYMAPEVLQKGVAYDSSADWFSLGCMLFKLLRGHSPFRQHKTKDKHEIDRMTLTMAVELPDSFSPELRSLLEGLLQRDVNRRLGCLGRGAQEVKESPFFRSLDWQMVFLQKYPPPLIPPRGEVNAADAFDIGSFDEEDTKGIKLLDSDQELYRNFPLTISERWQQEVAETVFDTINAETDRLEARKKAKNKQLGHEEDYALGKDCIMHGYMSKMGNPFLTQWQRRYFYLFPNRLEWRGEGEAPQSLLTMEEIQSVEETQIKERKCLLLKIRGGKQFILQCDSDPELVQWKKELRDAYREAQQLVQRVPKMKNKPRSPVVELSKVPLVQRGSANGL
In words: aptamer displacement from bead-bound GRK2 – biochemical, cherry pick 1, bead flow cytometry, dose response (AID 504500).

`C=c1[nH]n(-c2cccc(C(=O)O)c2)c(=O)c1=CC=Cc1ccco1` [SMR000113614] registered an EC50 of 14.8 µM.

Broadly, the EC50 is the concentration that produces a half-maximal response.
